Literature values as cited in PMC10482267, “Safety, tolerability, pharmacokinetics, and pharmacodynamics of single and multiple doses of aficamten in healthy Chinese participants: a randomized, double-blind, placebo-controlled, phase 1 study” (Frontiers in Pharmacology, 2023).

Design: method as in Heitner et al., 2019; Olivotto et al., 2020
Settings: humans; ref Heitner et al., 2019; Olivotto et al., 2020; cited from earlier work

CC(C)n1c(=O)cc(N[C@@H](C)c2ccccc2)[nH]c1=O [Mavacamten, mavacamten]
time to steady-state: approximately 6 weeks
